These results are taken from US8969565B2, “Imidazo[1,2-b]pyridazine-based compounds, compositions comprising them, and methods of their use” (Lexicon Pharmaceuticals, Inc., priority 2012, dated 2015).

The structures appear in SMILES notation.

As a reminder, the IC50 is the concentration at which inhibition is half-maximal.

The test concerns the target T1, AAK1 (Homo sapiens, UniProt Q2M2I8).
T1 construct: HA; expressed in transfected cells; host or cells: HEK293F
The test is described as follows: HEK281 cell-based assay (phospho-mu2 Western blot in transfected HEK293F cells). The following applies: 3 hours incubation, read-out: CBA IC50. The procedure, abridged: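 After 3 hours at 37° C. with compound (five 3-fold-spaced concentrations, DMEM+0.5% FBS), transiently transfected HEK293F cells expressing full-length human AAK1 and Flag-tagged mu2 were lysed. mu2 phosphorylation was read by anti-phospho-mu2 immunoblot, normalized against total mu2 by anti-Flag blot.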
A general note: A western blot detects proteins with antibodies after separation by electrophoresis.

T1 sequence (Q2M2I8 1-863 isoform Q2M2I8-2): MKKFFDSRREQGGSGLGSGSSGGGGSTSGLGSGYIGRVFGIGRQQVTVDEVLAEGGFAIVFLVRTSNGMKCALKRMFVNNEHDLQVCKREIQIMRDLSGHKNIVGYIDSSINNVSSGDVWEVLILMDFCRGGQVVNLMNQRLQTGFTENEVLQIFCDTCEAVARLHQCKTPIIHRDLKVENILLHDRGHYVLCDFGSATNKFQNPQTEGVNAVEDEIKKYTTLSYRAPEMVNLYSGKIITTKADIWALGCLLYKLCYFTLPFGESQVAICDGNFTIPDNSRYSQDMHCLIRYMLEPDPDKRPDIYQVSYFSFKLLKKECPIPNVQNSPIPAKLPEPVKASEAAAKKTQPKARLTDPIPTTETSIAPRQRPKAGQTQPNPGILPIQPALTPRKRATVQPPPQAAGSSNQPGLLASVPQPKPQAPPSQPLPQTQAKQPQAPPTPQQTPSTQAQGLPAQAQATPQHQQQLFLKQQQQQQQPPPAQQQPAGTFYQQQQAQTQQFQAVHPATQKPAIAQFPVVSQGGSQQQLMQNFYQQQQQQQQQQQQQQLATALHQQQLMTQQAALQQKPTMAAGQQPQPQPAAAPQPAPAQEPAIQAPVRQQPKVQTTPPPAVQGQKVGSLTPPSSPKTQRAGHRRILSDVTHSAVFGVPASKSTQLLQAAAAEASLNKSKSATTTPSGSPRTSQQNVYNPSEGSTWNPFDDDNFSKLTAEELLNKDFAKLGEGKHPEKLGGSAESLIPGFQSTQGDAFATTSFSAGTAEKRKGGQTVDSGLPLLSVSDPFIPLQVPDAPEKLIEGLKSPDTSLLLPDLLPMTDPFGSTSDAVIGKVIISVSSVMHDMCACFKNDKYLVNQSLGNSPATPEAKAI

In the case of `CCCCNc1ccc2ncc(-c3ccc(CNCC4CC4)cc3)n2n1` [N-butyl-3-(4-(((cyclopropylmethyl)amino)methyl)phenyl)imidazo[1,2-b]pyridazin-6-amine], the half-inhibitory concentration (IC50) was ≤ 1000 nM.
With `CCCCNc1ccc2ncc(-c3ccc(CNC(C)C)cc3)n2n1` [N-butyl-3-(4-((isopropylamino)methyl)phenyl)imidazo[1,2-b]pyridazin-6-amine], the half-inhibitory concentration (IC50) was ≤ 1000 nM.
As for `CCCCNc1ccc2ncc(-c3ccc(CNCCC)cc3)n2n1` [N-butyl-3-(4-((propylamino)methyl)phenyl)imidazo[1,2-b]pyridazin-6-amine], the IC50 is ≤ 1000 nM.
The result for `CCCCNc1ccc2ncc(-c3ccc(CNC(C)(C)C)cc3F)n2n1` [N-butyl-3-(4-((tert-butylamino)methyl)-2-fluorophenyl)imidazo[1,2-b]pyridazin-6-amine] reads ≤ 1000 nM.
Turning to `CCCCNc1ccc2ncc(-c3ccc(CNC(C)(C)C)c(F)c3)n2n1` [N-butyl-3-(4-((tert-butylamino)methyl)-3-fluorophenyl)imidazo[1,2-b]pyridazin-6-amine], the concentration for half-maximal inhibition (IC50) was ≤ 100 nM.
In the case of `CCCCNc1ccc2ncc(-c3ccc(C4CCCN4)cc3)n2n1` (stereo not drawn) [N-butyl-3-(4-(pyrrolidin-2-yl)phenyl)imidazo[1,2-b]pyridazin-6-amine], the IC50 was ≤ 1000 nM.
`CCCCNc1ccc2ncc(-c3ccc4c(c3)CNC4)n2n1` [N-butyl-3-(isoindolin-5-yl)imidazo[1,2-b]pyridazin-6-amine]: the IC50 is ≤ 1000 nM.
The result for `COc1cnccc1-c1cnc2ccc(NCCC(C)C)nn12` [N-isopentyl-3-(3-methoxypyridin-4-yl)imidazo[1,2-b]pyridazin-6-amine] reads ≤ 100 nM; that for `CNC(=O)c1ccc(-c2cnc3ccc(NCCc4ccccc4OC(F)(F)F)nn23)cc1` [N-methyl-4-(6-((2-(trifluoromethoxy)phenethyl)amino)imidazo[1,2-b]pyridazin-3-yl)benzamide], ≤ 10 nM; that for `CCCCCNc1ccc2ncc(-c3ccc(C4CCCN4)cc3)n2n1` (stereo not drawn) [Pentyl-[3-(4-pyrrolidin-2-yl-phenyl)-imidazo[1,2-b]pyridazin-6-yl]-amine], ≤ 1000 nM.
With `CCCCNc1nn2c(-c3ccc(CN)cc3)cnc2cc1C` [[3-(4-Aminomethyl-phenyl)-7-methyl-imidazo[1,2-b]pyridazin-6-yl]-butyl-amine] the figure was ≤ 100 nM; with `NCc1ccc(-c2cnc3ccc(NCCCc4ccccc4)nn23)cc1` [[3-(4-Aminomethyl-phenyl)-imidazo[1,2-b]pyridazin-6-yl]-(3-phenyl-propyl)-amine], ≤ 100 nM; with `NCc1ccc(-c2cnc3ccc(NC4CCCCC4)nn23)cc1` [[3-(4-Aminomethyl-phenyl)-imidazo[1,2-b]pyridazin-6-yl]-cyclohexylamine], ≤ 1000 nM.
With `CC(C)N(CCNc1ccc2ncc(-c3ccc(C(N)=O)cc3)n2n1)C(=O)OC1CCCC1` [cyclopentyl (2-((3-(4-carbamoylphenyl)imidazo[1,2-b]pyridazin-6-yl)amino)ethyl)(isopropyl)carbamate] the figure was ≤ 100 nM; with `CCOC(=O)CCCNc1ccc2ncc(-c3ccc(CN)cc3)n2n1` [ethyl 4-((3-(4-(aminomethyl)phenyl)imidazo[1,2-b]pyridazin-6-yl)amino)butanoate], ≤ 100 nM.
Consider `CCOC(=O)N(C)CCNc1ccc2ncc(-c3ccncc3OC)n2n1` [ethyl (2-((3-(3-methoxypyridin-4-yl)imidazo[1,2-b]pyridazin-6-yl)amino)ethyl)(methyl)carbamate], for which the IC50 was ≤ 10 nM.
`CCOC(=O)N(C)CCNc1ccc2ncc(-c3ccc(C(=O)NCCC(C)C)cc3)n2n1` [ethyl (2-((3-(4-(isopentylcarbamoyl)phenyl)imidazo[1,2-b]pyridazin-6-yl)amino)ethyl)(methyl)carbamate]: the IC50 was ≤ 100 nM.
The result for `CCOC(=O)N(C)CCNc1ccc2ncc(-c3ccc(C(=O)NC(C)(C)C)cc3)n2n1` [ethyl (2-((3-(4-(tert-butylcarbamoyl)phenyl)imidazo[1,2-b]pyridazin-6-yl)amino)ethyl)(methyl)carbamate] reads ≤ 100 nM.
